Laboratory results from US20150119349A1, “NEW ANTIFUNGAL COMPOSITIONS” (DSM IP ASSETS B.V., priority 2012, published 2015).

Key:
Type in all cases: in vivo
Penicillium italicum [1] = test: Treatment of oranges inoculated with Penicillium italicum, natamycin/ferbam (Example 7); details: 20° C., 600 ppm ferbam
Procedure: (§1) Ten fresh, organic oranges were used per treatment. Each orange was soaked in a 180 ppm hypochlorite solution for 10 minutes, then rinsed thoroughly with fresh tap water and dried. The peel of each disinfected orange was wounded once using a cork borer according to the method described by de Lapeyre de Bellaire and Dubois (1987). Subsequently, each wound was inoculated with 10 μl of a Penicillium italicum suspension containing 1×10^5 of spores/ml. After incubation for 3 hours at 20° C., each wound and the orange peel area of 1 cm around the wound was treated with in total 150 μl of a freshly prepared aqueous antifungal composition comprising either 500 ppm natamycin (DSM Food Specialties, Delft, The Netherlands), 500 ppm propineb or both. Each antifungal composition also comprised 3.2% (w/w) beeswax, 0.8% (w/w) glycerol, 0.7% (w/w) polyoxyethylene sorbitan monostearate (Tween 60), 0.2% (w/w) polyoxyethylene sorbitan monooleate (Tween 80), 0.05% (w/w) methylhydroxyethyl-cellulose (MHEC), 0.03% (w/w) anti-foaming agent, 0.02% (w/w) xanthan gum, 0.02% (w/w) citric acid, 0.01% (w/w) lactic acid and 0.01% potassium sorbate. A composition without natamycin or propineb was used as control.
(§2) The treated oranges were incubated in a closed box in the dark at 20° C. and assessed on mould growth during a 17-day incubation period. The antifungal activity (in %) of the individual and combined active ingredients was determined by calculating the reduction in mould growth observed on the oranges treated with the antifungal composition in comparison to the mould growth on the oranges treated with the control composition according to the Colby method (Colby, 1967) described in Example 5.
The experiment was conducted as described in Example 6, except for the fact that each wounded and inoculated orange was treated with 150 μl of a freshly prepared aqueous antifungal composition comprising either 500 ppm natamycin (DSM Food Specialties, Delft, The Netherlands), 600 ppm ferbam or both. During the 17-day incubation period, the treated oranges were assessed on mould growth according to the method described in Example 6.

Penicillium italicum [2] = test: Treatment of oranges inoculated with Penicillium italicum, natamycin/propineb (Example 6); details: 20° C., 500 ppm propineb
Procedure: as §1, §2

Botrytis cinerea [3] = test: Treatment of strawberries inoculated with Botrytis cinerea (Example 5); details: 500 ppm natamycin, 600 ppm propineb; for Number of moulded strawberries/total number of 12 strawberries / Observed antifungal activity O: 20° C., strawberries
Procedure: Twelve fresh, organic strawberries were used per treatment. Each strawberry was wounded with a 0.5 mm long cut and each wound was inoculated with 10 μl of a Botrytis cinerea suspension containing 1×10^5 of spores/ml. After a 3-hour incubation period at 20° C., each strawberry was dipped individually for 1 minute in a freshly prepared aqueous antifungal composition comprising either 500 ppm natamycin (DSM Food Specialties, Delft, The Netherlands), 600 ppm propineb or both. Each antifungal composition also comprised 3.2% (w/w) beeswax, 0.8% (w/w) glycerol, 0.7% (w/w) polyoxyethylene sorbitan monostearate (Tween 60), 0.1% (w/w) polyoxyethylene sorbitan monooleate (Tween 80), 0.05% (w/w) methylhydroxyethyl-cellulose (MH EC), 0.03% (w/w) anti-foaming agent, 0.02% (w/w) xanthan gum, 0.02% (w/w) citric acid, 0.01% (w/w) lactic acid and 0.01% potassium sorbate. A composition without natamycin or propineb was used as control. […] The treated strawberries were incubated in a closed box in the dark at 20° C. for 9 days.
During incubation, mould growth on the strawberries was assessed in a twofold manner: (i) the number of moulded strawberries per total of 12 strawberries was counted; and (ii) the antifungal activity (in %) of the individual and combined active ingredients was determined by calculating the reduction in mould growth observed on the strawberries treated with the antifungal composition in comparison to the mould growth on the strawberries treated with the control composition. The expected antifungal activity (E in %) of the combined antifungal composition comprising both active ingredients was calculated according to the Colby equation (Colby, 1967): […]
wherein X and Y are the observed antifungal activities (in %) of the individual active ingredients X and Y, respectively.

Botrytis cinerea [4] = test: Treatment of sweet peppers inoculated with Botrytis cinerea (Example 8); details: 20° C., 200 ppm propineb
Procedure: Ten fresh, organic sweet peppers were used per treatment. Each sweet pepper was soaked in a 180 ppm hypochlorite solution for 10 minutes, then rinsed thoroughly with fresh tap water and dried. The peel of each disinfected sweet pepper was wounded once using a cork borer according to the method described by de Lapeyre de Bellaire and Dubois (1987). Subsequently, each wound was inoculated with 10 μl of a Botrytis cinerea suspension containing 1×10^5 of spores/ml. After incubation for 3 hours at 20° C., each wound and the skin area of 0.5 cm around the wound was treated with in total 75 μl of a freshly prepared aqueous antifungal composition comprising either 200 ppm natamycin (DSM Food Specialties, Delft, The Netherlands), 200 ppm propineb or both. Each antifungal composition also comprised 3.2% (w/w) beeswax, 0.8% (w/w) glycerol, 0.7% (w/w) polyoxyethylene sorbitan monostearate (Tween 60), 0.2% (w/w) polyoxyethylene sorbitan monooleate (Tween 80), 0.05% (w/w) methylhydroxyethyl-cellulose (MHEC), 0.03% (w/w) anti-foaming agent, 0.02% (w/w) xanthan gum, 0.02% (w/w) citric acid, 0.01% (w/w) lactic acid and 0.01% potassium sorbate. A composition without natamycin or propineb was used as control.
as §2, with “sweet peppers” for “oranges”, “27-day” for “17-day”

[5] = incubation day 7, 500 ppm natamycin
[6] = incubation day 8, 500 ppm natamycin
[7] = incubation day 9, 500 ppm natamycin
[8] = incubation day 10, 500 ppm natamycin
[9] = incubation day 11, 500 ppm natamycin
[10] = incubation day 12, 500 ppm natamycin
[11] = incubation day 13, 500 ppm natamycin
[12] = incubation day 14, 500 ppm natamycin
[13] = incubation day 15, 500 ppm natamycin
[14] = incubation day 17, 500 ppm natamycin
[15] = incubation day 11, 200 ppm natamycin
[16] = incubation day 12, 200 ppm natamycin
[17] = incubation day 13, 200 ppm natamycin
[18] = incubation day 15, 200 ppm natamycin
[19] = incubation day 18, 200 ppm natamycin
[20] = incubation day 24, 200 ppm natamycin
[21] = incubation days 20-22, 200 ppm natamycin
[22] = incubation days 25-27, 200 ppm natamycin

Row | Molecule | Observed antifungal activity O (Penicillium italicum [1]; [5]) | Observed antifungal activity O (Penicillium italicum [1]; [6]) | Observed antifungal activity O (Penicillium italicum [1]; [7]) | Observed antifungal activity O (Penicillium italicum [1]; [8]) | Observed antifungal activity O (Penicillium italicum [1]; [9]) | Observed antifungal activity O (Penicillium italicum [1]; [10]) | Observed antifungal activity O (Penicillium italicum [1]; [11]) | Observed antifungal activity O (Penicillium italicum [1]; [12]) | Observed antifungal activity O (Penicillium italicum [1]; [13]) | Observed antifungal activity O (Penicillium italicum [1]; [14]) | Observed antifungal activity O (Penicillium italicum [2]; [8]) | Observed antifungal activity O (Penicillium italicum [2]; [9]) | Observed antifungal activity O (Penicillium italicum [2]; [10]) | Observed antifungal activity O (Penicillium italicum [2]; [11]) | Observed antifungal activity O (Penicillium italicum [2]; [12]) | Observed antifungal activity O (Penicillium italicum [2]; [13]) | Observed antifungal activity O (Penicillium italicum [2]; [14]) | Number of moulded strawberries/total number of 12 strawberries (Botrytis cinerea [3]; Day 5) | Number of moulded strawberries/total number of 12 strawberries (Botrytis cinerea [3]; Day 6-9) | Observed antifungal activity O (Botrytis cinerea [3]; incubation day 4) | further results
1 | CN(C)C(=S)[S-].CN(C)C(=S)[S-].CN(C)C(=S)[S-].[Fe+3] [Ferbam, ferbam] | 20% | 24% | 20% | 7% | 13% | 6% | 6% | 6% | 6% | 5% | – | – | – | – | – | – | – | – | – | – | –
2 | C[C@@H]1C/C=C/C=C/C=C/C=C/[C@H](O[C@@H]2O[C@H](C)[C@@H](O)[C@H](N)[C@@H]2O)C[C@@H]2O[C@](O)(C[C@@H](O)C[C@H]3O[C@@H]3/C=C/C(=O)O1)C[C@H](O)[C@H]2C(=O)O [Natamycin, natamycin] | 89% | 86% | 64% | 54% | 41% | 36% | 38% | 32% | 24% | 21% | 54% | 41% | 36% | 38% | 32% | 24% | 21% | 11/12 | 12/12 | 33% | Observed antifungal activity O (Botrytis cinerea [3]; incubation day 5): 16%; Observed antifungal activity O (Botrytis cinerea [3]; incubation day 6): 5.3%; Observed antifungal activity O (Botrytis cinerea [3]; incubation day 7): 11%; Observed antifungal activity O (Botrytis cinerea [3]; incubation day 8): 14%; Observed antifungal activity O (Botrytis cinerea [3]; incubation day 9): 4.8%; Observed antifungal activity O (Botrytis cinerea [4]; [15]): 84%; Observed antifungal activity O (Botrytis cinerea [4]; [16]): 80%; Observed antifungal activity O (Botrytis cinerea [4]; [17]): 79%; Observed antifungal activity O (Botrytis cinerea [4]; [18]): 78%; Observed antifungal activity O (Botrytis cinerea [4]; [19]): 75%; Observed antifungal activity O (Botrytis cinerea [4]; [20]): 59%; Observed antifungal activity O (Botrytis cinerea [4]; [21]): 71%; Observed antifungal activity O (Botrytis cinerea [4]; [22]): 57%
3 | propineb | – | – | – | – | – | – | – | – | – | – | 0% | 0% | 0% | 0% | 0% | 0% | 0% | 12/12 | 12/12 | 0% | Number of the 12 strawberries that showed mould growth (Botrytis cinerea [3]; after 5 through 9 days of incubation): 12; Observed antifungal activity O (Botrytis cinerea [3]; incubation day 5): 0%; Observed antifungal activity O (Botrytis cinerea [3]; incubation day 6): 0%; Observed antifungal activity O (Botrytis cinerea [3]; incubation day 7): 0%; Observed antifungal activity O (Botrytis cinerea [3]; incubation day 8): 0%; Observed antifungal activity O (Botrytis cinerea [3]; incubation day 9): 0%; Observed antifungal activity O (Botrytis cinerea [4]; [15]): 0%; Observed antifungal activity O (Botrytis cinerea [4]; [16]): 0%; Observed antifungal activity O (Botrytis cinerea [4]; [17]): 0%; Observed antifungal activity O (Botrytis cinerea [4]; [18]): 0%; Observed antifungal activity O (Botrytis cinerea [4]; [19]): 0%; Observed antifungal activity O (Botrytis cinerea [4]; [20]): 0%; Observed antifungal activity O (Botrytis cinerea [4]; [21]): 0%; Observed antifungal activity O (Botrytis cinerea [4]; [22]): 0%
